A word on the Ki: it is the dissociation constant of the complex between target and ligand, obtained from inhibition or displacement. A high value points to a looser hold on the target.

The results in this text go back to publication PMC11091832 (Journal of medicinal chemistry, 2021).

Like-named read-outs stand apart in the source and are kept apart here.

The target in experiment [1] is T1, hD2LR (Homo sapiens, UniProt P14416). Description: Radioligand binding, agonist [3H]-. As to conditions: for (D3R/D2R) Ki ratio, [3H]-(R)-(+)-7-OH-DPAT: selectivity for D2R, value printed in parentheses.
Experiment [2] deals with T2, hD3R (Homo sapiens, UniProt P35462). The experiment is described as follows: Radioligand binding, agonist [3H]-.
The target in experiment [3] is T1, hD2LR.
In experiment [4] the target is T2, hD3R.

T1 sequence (P14416 whole entry): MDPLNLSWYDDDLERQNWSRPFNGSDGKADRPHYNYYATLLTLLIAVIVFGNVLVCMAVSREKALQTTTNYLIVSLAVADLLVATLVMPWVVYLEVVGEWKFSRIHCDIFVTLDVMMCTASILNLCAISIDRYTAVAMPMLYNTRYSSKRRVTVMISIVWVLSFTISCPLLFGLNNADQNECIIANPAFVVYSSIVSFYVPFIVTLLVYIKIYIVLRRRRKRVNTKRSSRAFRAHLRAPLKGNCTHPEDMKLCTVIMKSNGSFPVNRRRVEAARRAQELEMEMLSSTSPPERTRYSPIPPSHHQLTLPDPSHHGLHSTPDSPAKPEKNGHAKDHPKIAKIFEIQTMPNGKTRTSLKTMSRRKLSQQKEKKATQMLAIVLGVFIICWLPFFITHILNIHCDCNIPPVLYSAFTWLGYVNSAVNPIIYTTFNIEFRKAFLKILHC
T2 sequence (P35462 whole entry): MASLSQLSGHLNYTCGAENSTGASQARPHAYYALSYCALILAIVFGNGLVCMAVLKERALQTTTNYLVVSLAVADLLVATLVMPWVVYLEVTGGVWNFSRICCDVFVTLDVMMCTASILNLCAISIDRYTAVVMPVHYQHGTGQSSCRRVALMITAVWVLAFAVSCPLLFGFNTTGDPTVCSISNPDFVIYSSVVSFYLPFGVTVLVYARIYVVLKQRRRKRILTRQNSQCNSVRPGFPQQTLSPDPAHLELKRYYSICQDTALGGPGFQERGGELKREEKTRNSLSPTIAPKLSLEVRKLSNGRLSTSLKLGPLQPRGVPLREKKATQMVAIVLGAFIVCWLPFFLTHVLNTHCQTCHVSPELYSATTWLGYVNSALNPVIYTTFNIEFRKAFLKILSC

For `CN(CC[C@@H]1CC[C@H](CNC(=O)c2cc3ccccc3[nH]2)C1)[C@@H]1Cc2cccc3[nH]c(=O)n(c23)C1` (relative stereo) [rel-cis-16a, N-((3-(2-(Methyl((R)-2-oxo-1,2,5,6-tetrahydro-4H-imidazo[4,5,1-ij]quinolin-5-yl)amino)ethyl)cyclopentyl)methyl)-1H-indole-2-carboxamide], the “(D3R/D2R) Ki ratio, [3H]-(R)-(+)-7-OH-DPAT” value on hD2LR [1] is reported as “(9.6)”.

As for `CN(CC[C@@H]1CC[C@@H](CNC(=O)c2cc3ccccc3[nH]2)C1)[C@@H]1Cc2cccc3[nH]c(=O)n(c23)C1` (relative stereo) [rel-trans-16b, N-((3-(2-(Methyl((R)-2-oxo-1,2,5,6-tetrahydro-4H-imidazo[4,5,1-ij]quinolin-5-yl)amino)ethyl)cyclopentyl)methyl)-1H-indole-2-carboxamide], on hD2LR [1], the “(D3R/D2R) Ki ratio, [3H]-(R)-(+)-7-OH-DPAT” value is on record as “(17)”.

Consider `C[C@H]1CO[C@@H](c2ccc(N)nc2)CN1CC=C1CCC(CNC(=O)c2cc3ccccc3[nH]2)C1` (mixture of isomers) [Compound 15, N-((3-(2-((2S,5S)-2-(6-Aminopyridin-3-yl)-5-methylmorpholino)ethylidene)cyclopentyl)methyl)-1H-indole-2-carboxamide], for which the Ki was determined as 55.9 ± 4.78 nM on hD2LR [1], 7.41 ± 0.323 nM at hD3R [2], 7920 ± 772 nM on hD2LR [3] and 104 ± 7.65 nM on hD3R [4].
